The results in this text go back to patent US12226424B2, “Target protein degradation compounds, their anti-tumor use, their intermediates and use of intermediates” (ShanghaiTech University, priority 2018, dated 2025).

Where two headings read alike, the source gives them in different places.

The test system of assay [1] is HEK293 cells. Briefly: Proliferation inhibition (IC50) on non-BCR-ABL-positive HEK293 cells.
Assay [2] concerns K562 cells (BCR-ABL positive). Briefly: Half inhibitory concentration (IC50) on tumor cells, CCK-8, K562. Conditions: read-out: IC50 (nM)/K562 cell line.
Description: Determination of Half Inhibitory Concentration (IC50) of PROTAD Compounds on Tumor Cells
K562 cells were seeded in 100 μL of RPMI1640 complete medium at a density of 20,000 cells/well. 100 μL of the inoculated cells were treated with 100 μL diluted PROTAD compound of the present disclosure to be tested at 9 successively decreasing concentrations (starting at the highest concentration of 10 μM; 3-fold serial dilutions). After the cells were treated with the tested drugs for 48 hours, the cell viability determination was performed in accordance with CCK-8 reagent operating instructions. The negative control was DMSO, and positive control was a commercial inhibitor. After CCK-8 treatment for 2 h, the value of O.D.450 was measured using a microplate reader.
Assay [3] relates to U937 cells. Briefly: Proliferation inhibition (IC50) on non-BCR-ABL-positive U937 cells.
The subject of assay [4] is MM1S cells. In words: Half inhibitory concentration (IC50) on MM1S tumor cell proliferation (CCK-8). It is filed as cell-based. Particulars: Homo sapiens, MM1.S, MM1S cell proliferation inhibitory activity, 72 hours of treatment, read-out: IC50(nM)/MM1S cell line. The protocol:
The multiple myeloma cell line used was: MM1S (myeloma (immunoglobulin A lambda), B lymphoblasts), purchased from American Type Culture Collection (ATCC). The medium is RPMI1640 supplemented with 10% FBS and 1% Penicillin-Streptomycin (penicillin and streptomycin). The cells used were identified as correct cells by STR cells, and were negative for mycoplasma through routine inspections.
The cells used in this present disclosure were cultured in a 37° C. incubator containing 5% CO2. The complete cell culture medium was RPMI 1640 medium with 10% fetal bovine serum, and the final concentrations of penicillin and streptomycin were 100 U/mL, respectively.
MM1S cells were seeded in 100 μL RPMI1640 complete medium at a density of 15000 cells/well. 100 μL of the inoculated cells were treated with 0.5 μL diluted thio-substituted compound of formula (IV) to be tested of the present disclosure at 10 successively decreasing concentrations (starting at the highest concentration of 10 μM/1 μM; 5-fold serial dilutions). After 72 hours of treatment, the cell viability was determined according to the CCK-8 reagent operating instructions. The negative control was DMSO, and the positive control was a commercial inhibitor. After CCK-8 treatment for 2 h, the value of O.D.450 was measured using a microplate reader.

Assay [5] relates to MDA-MB-468 cells. Briefly: Half inhibitory concentration (IC50) on BET-expressing tumor cells, CCK-8, MDA-MB-468. It is filed as cell-based. Conditions: Homo sapiens, 48/72 h, read-out: IC50 (nM)/MDA-MB-468 cell line. On the procedure:
(§1) BET-expressing cells MV-4-11 cells (human B granulocytic leukemia cells), MDA-MB-231 cells (human breast cancer cells), MDA-MB-468 cells (human breast cancer cells), MDA-MB-453 Cells (human breast cancer cells), MM1S cells (myeloma (immunoglobulin A lambda), B lymphoblasts) and SR cells (human large cell immunoblast lymphoma) were purchased from the American Type Culture Collection (ATCC).
(§2) The cells used in this present disclosure were cultured in a 37° C. incubator containing 5% CO2. The complete cell culture medium was RPMI 1640/IMDM/DMEM medium with 10% fetal bovine serum, and the final concentrations of penicillin and streptomycin were 100 U/mL, respectively. All cells were tested negative for mycoplasma with mycoplasma detection kit before the experiment.
(§3) Determination of the Half Inhibitory Concentration (IC50) of PROTAD Compounds on Tumor Cells
(§4) MV-411 cells, MM1S cells and SR cells were seeded in 100 μL IMDM/RPMI1640/DMEM complete medium at a density of 15000/10000 cells/well; MDA-MB-231 cells, MDA-MB-468 cells, and MDA-MB453 cells were seeded in 100 μL IMDM/RPMI1640/DMEM complete medium at a density of 3000/5000 cells/well, respectively. 100 μL of the inoculated cells were treated with 0.5 μL diluted PROTAD compounds of the present disclosure to be tested at 10 successively decreasing concentrations (starting at the highest concentration of 10 μM; 5-fold serial dilutions). After the cells were treated with the tested drugs 48/72 h, the cell viability was determined according to the CCK-8 reagent manual. The negative control was DMSO, and the positive control was a commercial inhibitor. After CCK-8 treatment for 2 h, the value of O.D.450 was measured using a microplate reader.

Assay [6] deals with MM1S cells. Briefly: Half inhibitory concentration (IC50) on BET-expressing tumor cells, CCK-8, MM1S. It is filed as cell-based. Conditions: Homo sapiens, MM1.S, 48/72 h, read-out: IC50 (nM)/MM1S cell line. On the procedure: as §1, §2, §3, §4
Assay [7] deals with MDA-MB-231 cells. Briefly: Half inhibitory concentration (IC50) on BET-expressing tumor cells, CCK-8, MDA-MB-231. It counts as cell-based. Conditions: Homo sapiens, 48/72 h, read-out: IC50 (nM)/MDA-MB-231 cell line. The protocol:
as §1, §2, §3, §4

For assay [8], the system named is MDA-MB-453 cells. Briefly: Half inhibitory concentration (IC50) on BET-expressing tumor cells, CCK-8, MDA-MB-453. It counts as cell-based, human. Conditions: 48/72 h, read-out: IC50 (nM)/MDA-MB-453 cell line. On the procedure:
as §1, §2, §3, §4

The test system of assay [9] is MV-4-11 cells. Briefly: Half inhibitory concentration (IC50) on BET-expressing tumor cells, CCK-8, MV-4-11. Particulars: Homo sapiens, MV4-11, read-out: IC50 (nM)/MV-4-11 cell line, MV-4-11 cells, 48/72 h, CCK-8.
The mark [10] stands for this setting: Homo sapiens, MDA-MB-453, MDA-MB-453 cells.
The mark [11] stands for this setting: Homo sapiens, HEK293, read-out: IC50 (nM)/HEK293 cell line.
[12] abbreviates: Homo sapiens, U-937, read-out: IC50 (nM)/U937 cell line.

As to `Cc1nc(Nc2ncc(C(=O)Nc3c(C)cccc3Cl)s2)cc(N2CCN(C(=O)CCCCCSc3cccc4c3CN(C3CCC(=O)NC3=O)C4=O)CC2)n1` (stereo not shown) [SIAIS 171109], the IC50 in [1] (read-out: IC50 (nM)/HEK293 cell line, HEK293 cells, highest concentration 10 μM) is above 10000 nM; in assay [2] (K562 cells, 48 hours, CCK-8), 0.53 nM; in [3] (read-out: IC50 (nM)/U937 cell line, U937 cells, highest concentration 10 μM) it was above 10000 nM.
Take `O=C1CCC(N2Cc3c(SCCCCCCBr)cccc3C2=O)C(=O)N1` (stereo not shown) [SIAIS1216133, 3-(4-(6-bromohexylthio)-1-oxoisoindolin-2-yl)piperidine-2,6-dione]: the IC50 in assay [4] is 1.27 ± 0.13 nM.
Still for that read-out and setting: the result for `O=C1CCC(N2Cc3c(SCCCCCCCCCCBr)cccc3C2=O)C(=O)N1` (stereo not shown) [SIAIS1220013, 3-(4-((10-bromodecyl)thio)-1-oxoisoindolin-2-yl)piperidine-2,6-dione] reads 1.98 nM; that for `O=C1CCC(N2Cc3c(SCCCCCCCBr)cccc3C2=O)C(=O)N1` (stereo not shown) [SIAIS1216135, 3-(4-(7-bromoheptylthio)-1-oxoisoindolin-2-yl)piperidine-2,6-dione], 1.23 ± 0.42 nM.
In the case of `O=C1CCC(N2Cc3c(SCCCCCCCCBr)cccc3C2=O)C(=O)N1` (stereo not shown) [SIAIS1216137, 3-(4-((8-bromooctyl)thio)-1-oxoisoindolin-2-yl)piperidine-2,6-dione], in assay [4], the IC50 worked out at 1.58 ± 0.71 nM.
The same measure, in the same setting: the figure for `Nc1cccc2c1C(=O)N(C1CCC(=O)NC1=O)C2=O` (stereo not shown) [Pomalidomide, reference compound] is 9.38 nM; for `NCCCCCCCCSc1cccc2c1CN(C1CCC(=O)NC1=O)C2=O` (stereo not shown) [SIAIS171136, 3-(4-((8-aminooctyl)thio)-1-oxoisoindolin-2-yl)piperidine-2,6-dione] it is 4.22 nM.
Same read-out and setting: the result for `NCCCCCSc1cccc2c1CN(C1CCC(=O)NC1=O)C2=O` (stereo not shown) [SIAIS171132, 3-(4-((5-aminopentyl)thio)-1-oxoisoindolin-2-yl)piperidine-2,6-dione] reads 8.27 nM; that for `NCCSc1cccc2c1CN(C1CCC(=O)NC1=O)C2=O` (stereo not shown) [SIAIS171123, 3-(4-((2-aminoethyl)thio)-1-oxoisoindolin-2-yl)piperidine-2,6-dione], 71.4 nM.
The same measure, in the same setting: the result for `O=C1CCC(N2Cc3c(SCCCCCCCCCCCBr)cccc3C2=O)C(=O)N1` (stereo not shown) [SIAIS1220015, 3-(4-((11-bromoundecyl)thio)-1-oxoisoindolin-2-yl)piperidine-2,6-dione] reads 3.45 nM.
On to `Cc1sc2c(c1C)C(c1ccc(Cl)cc1)=N[C@@H](CC(=O)NCCCCCCCCSc1cccc3c1CN(C1CCC(=O)NC1=O)C3=O)c1nnc(C)n1-2` (stereo partly drawn) [SIAIS171145, 2-((S)-4-(4-chlorophenyl)-2,3,9-trimethyl-6H-thieno[3,2-f][1,2,4]triazolo[4,3-a][1,4]diazepin-6-yl)-N-(8-((2-(2,6-dioxopiperidin-3-yl)-1-oxoisoindolin-4-yl)thio)octyl)acetamide], for which the IC50 in assay [5] amounted to 948 ± 241 nM; in [6] it was 1.2 nM; in assay [7] it was 537 ± 148 nM; in assay [8] (setting [10]), 135 nM; in assay [8] (MDA-MB-453 cells), 222 nM; in assay [9] it was 2 ± 1.8 nM.
For `Cc1sc2c(c1C)C(c1ccc(Cl)cc1)=N[C@@H](CC(=O)NCCCCCCCSc1cccc3c1C(=O)N(C1CCC(=O)NC1=O)C3=O)c1nnc(C)n1-2` (stereo partly drawn) [SIAIS171040, 2-((S)-4-(4-chlorophenyl)-2,3,9-trimethyl-6H-thieno[3,2-f][1,2,4]triazolo[4,3-a][1,4]diazepin-6-yl)-N-(7-((2-(2,6-dioxopiperidin-3-yl)-1,3-dioxoisoindolin-4-yl)thio)heptyl)acetamide], the IC50 in [5] came to 46 ± 12 nM; in assay [6] it was 2.78 nM; in assay [7], 69 ± 38 nM; in [8] (setting [10]), 85 nM; in assay [8] (MDA-MB-453 cells), 75.7 nM; in [9], 2.2 ± 2 nM.
`Cc1sc2c(c1C)C(c1ccc(Cl)cc1)=N[C@@H](CC(=O)NCCSc1cccc3c1CN(C1CCC(=O)NC1=O)C3=O)c1nnc(C)n1-2` (stereo partly drawn) [SIAIS171138, 2-((S)-4-(4-chlorophenyl)-2,3,9-trimethyl-6H-thieno[3,2-f][1,2,4]triazolo[4,3-a][1,4]diazepin-6-yl)-N-(2-((2-(2,6-dioxopiperidin-3-yl)-1-oxoisoindolin-4-yl)thio)ethyl)acetamide]: the IC50 in assay [5] was above 1740 nM; in assay [6], 3.1 nM; in assay [7], above 10000 nM; in assay [8] (setting [10]) it was 2630 nM; in [8] (MDA-MB-453 cells) it was 2800 nM; in assay [9], 8.6 ± 9.1 nM.
`COc1cc(Nc2c(C#N)cnc3cc(OCCCN4CCN(C)CC4)c(OC)cc23)c(Cl)cc1Cl` [Bosutinib, reference compound]: the IC50 in assay [1] (setting [11]) was above 10000 nM; in [2] (Homo sapiens, K562, 48 h), 92.6 nM; in assay [3] (setting [12]), above 10000 nM.
`Cc1sc2c(c1C)C(c1ccc(Cl)cc1)=N[C@@H](CC(=O)NCCCCCCSc1cccc3c1C(=O)N(C1CCC(=O)NC1=O)C3=O)c1nnc(C)n1-2` (stereo partly drawn) [SIAIS171039, 2-((S)-4-(4-chlorophenyl)-2,3,9-trimethyl-6H-thieno[3,2-f][1,2,4]triazolo[4,3-a][1,4]diazepin-6-yl)-N-(6-((2-(2,6-dioxopiperidin-3-yl)-1,3-dioxoisoindolin-4-yl)thio)hexyl)acetamide]: the IC50 in [5] came out at 92 ± 43 nM; in assay [6] it was 0.82 nM; in assay [7], 98 ± 82 nM; in [8] (setting [10]) it was 167 nM; in assay [8] (MDA-MB-453 cells), 162 nM; in assay [9], 2.7 ± 2.5 nM.
As to `NCCCCCCSc1cccc2c1CN(C1CCC(=O)NC1=O)C2=O` (stereo not shown) [SIAIS171134, 3-(4-((6-aminohexyl)thio)-1-oxoisoindolin-2-yl)piperidine-2,6-dione], in assay [4], the IC50 turned out to be 4.77 nM.
Same read-out and setting: the figure for `NCCCCCCCSc1cccc2c1CN(C1CCC(=O)NC1=O)C2=O` (stereo not shown) [SIAIS171135, 3-(4-((7-aminoheptyl)thio)-1-oxoisoindolin-2-yl)piperidine-2,6-dione] is 4.31 nM; for `NCCCSc1cccc2c1CN(C1CCC(=O)NC1=O)C2=O` (stereo not shown) [SIAIS171124, 3-(4-((3-aminopropyl)thio)-1-oxoisoindolin-2-yl)piperidine-2,6-dione] it is 56.9 nM.
For `Cc1nc(Nc2ncc(C(=O)Nc3c(C)cccc3Cl)s2)cc(N2CCN(C(=O)CCCCCCSc3cccc4c3CN(C3CCC(=O)NC3=O)C4=O)CC2)n1` (stereo not shown) [SIAIS171110, N-(2-chloro-6-methylphenyl)-2-((6-(4-(7-((2-(2,6-dioxopiperidin-3-yl)-1-oxoisoindolin-4-yl)thio)heptanoyl)piperazin-1-yl)-2-methylpyrimidin-4-yl)amino)thiazole-5-carboxamide], the IC50 was above 10000 nM in assay [1] (setting [11]); 1.33 nM in assay [2] (Homo sapiens, K562, 48 h); above 10000 nM in assay [3] (setting [12]).
For the compound `NCCCCSc1cccc2c1CN(C1CCC(=O)NC1=O)C2=O` (stereo not shown) [SIAIS171131, 3-(4-((4-aminobutyl)thio)-1-oxoisoindolin-2-yl)piperidine-2,6-dione], the IC50 in assay [4] is 6.61 nM.
